Our source for the IC50 values is patent US20260365653A1, “IRREVERSIBLE MUTEGFR INHIBITORS” (Bayer Aktiengesellschaft, priority 2022, published 2026).

For assay [1], the target named is T1, mutEGFR (D770_N771insNPG, T790) (Homo sapiens, UniProt P00533, INS770NPG/T790M).
T1 construct: exact insNPG construct not described; in-house EGFR proteins were N-terminal GST fusions from baculovirus/insect cells (borders R669-A1210 given only for WT, insSVD, insASV)
The assay is described as follows: mutEGFR (D770_N771insNPG, T790) kinase assay. The class given is biochemical. The text has this:
The different EGFR proteins used in the biochemical kinase activity inhibition assays were generated inhouse by expression in insect cells using Baculo Virus system and subsequent purification as described in the following paragraphs.
The cDNAs encoding the various protein sequences from human EGFR human (P00533) were optimized for expression in eukaryotic cells and synthesized by the GeneArt Technology at Life Technologies.

Assay [2] concerns BA/F3 (insSVD) cells. The assay is described as follows: Ba/F3-EGFR-insSVD cell survival assay (Cell Titer-Glo). In kind it is cell-based. An outline of the steps: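 CellTiter-Glo luminescence read after 48 h compound exposure at 37° C. Cells: IL-3-independent Ba/F3 lines transduced with EGFR-insSVD or EGFR-insSVD T790M, maintained on 10 ng/ml EGF and seeded at 4000 per well.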
(ATP-based viability assays read luminescence as a measure of living cells.)

The target of assay [3] is T2, mutEGFR (D770_N771insSVD) (Homo sapiens, UniProt P00533, DUP768-770).
T2 construct: GST-EGFR #3 (SVD between D770 and N771); made in house; host or cells: Sf9 insect cells (baculovirus)
The assay is described as follows: Exon20-Mutant-EGFR (D770_N771insSVD) kinase assay (TR-FRET). In kind it is biochemical. Background: TR-FRET usually uses a lanthanide donor and a delayed reading to cut background.

[4] abbreviates: Mus musculus, BaF3, 48 h, Table 3a, cell survival, Cell Titer-Glo, with 10 ng/ml EGF, without IL-3.
[5] abbreviates: mutEGFR (D770_N771insSVD) kinase assay IC50, Table 2a, D770_N771insSVD, 2 mM ATP.
Where [6] appears, read: Table 2b (from US Priority Patent Application), mutEGFR D770_N771insNPG.
Where [7] appears, read: Mus musculus, BaF3, 48 h, Table 3b, Ba/F3 EGFR-insSVD.
Setting [8] is: mutEGFR (D770_N771insSVD) kinase assay IC50, Table 2b (from US Priority Patent Application), mutEGFR D770_N771insSVD.
Setting [9] is: Table 3a, cell survival, Cell Titer-Glo, with 10 ng/ml EGF, without IL-3, 48 h.

Each structure is given as a SMILES string.

T1 sequence (P00533 with tags, fused parts or gaps INS770NPG/T790M limits assumed): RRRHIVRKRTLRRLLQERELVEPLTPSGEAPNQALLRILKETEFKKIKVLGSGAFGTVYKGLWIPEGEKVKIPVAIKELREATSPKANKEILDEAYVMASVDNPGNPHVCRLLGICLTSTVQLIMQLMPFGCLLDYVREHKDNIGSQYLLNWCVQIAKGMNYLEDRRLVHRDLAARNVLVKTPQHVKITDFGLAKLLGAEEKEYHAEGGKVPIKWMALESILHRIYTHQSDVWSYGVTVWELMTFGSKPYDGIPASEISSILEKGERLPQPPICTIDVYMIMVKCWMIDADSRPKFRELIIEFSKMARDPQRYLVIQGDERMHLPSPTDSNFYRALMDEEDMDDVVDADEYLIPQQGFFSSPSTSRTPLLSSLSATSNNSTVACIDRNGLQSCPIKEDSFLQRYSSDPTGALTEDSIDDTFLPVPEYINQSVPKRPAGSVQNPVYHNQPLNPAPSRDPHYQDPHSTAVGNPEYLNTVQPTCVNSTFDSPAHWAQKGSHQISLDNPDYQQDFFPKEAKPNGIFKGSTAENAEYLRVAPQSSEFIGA
T2 sequence (P00533 with tags, fused parts or gaps DUP768-770): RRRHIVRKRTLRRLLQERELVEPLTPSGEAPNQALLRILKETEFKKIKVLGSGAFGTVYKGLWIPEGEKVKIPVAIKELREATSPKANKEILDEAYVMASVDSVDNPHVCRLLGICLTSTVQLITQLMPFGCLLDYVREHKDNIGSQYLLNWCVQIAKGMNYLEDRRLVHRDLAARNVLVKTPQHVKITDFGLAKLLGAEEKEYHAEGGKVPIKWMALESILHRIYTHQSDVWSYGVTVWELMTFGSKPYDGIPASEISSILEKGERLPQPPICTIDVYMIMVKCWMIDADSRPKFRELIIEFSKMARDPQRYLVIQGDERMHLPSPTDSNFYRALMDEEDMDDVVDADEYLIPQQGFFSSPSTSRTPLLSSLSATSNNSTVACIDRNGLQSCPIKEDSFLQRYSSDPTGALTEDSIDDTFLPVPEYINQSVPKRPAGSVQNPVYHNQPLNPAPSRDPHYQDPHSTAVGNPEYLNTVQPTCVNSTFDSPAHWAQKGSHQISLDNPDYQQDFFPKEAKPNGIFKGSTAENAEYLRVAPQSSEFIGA

Consider `COc1ccccc1-c1nn2c(c1-c1ccncc1)CN(C(=O)/C=C/CN(C)C)CC2` [Example 28, (2E)-4-(dimethylamino)-1-[2-(2-methoxyphenyl)-3-(pyridin-4-yl)-6,7-dihydropyrazolo[1,5-a]pyrazin-5(4H)-yl]but-2-en-1-one], for which the half-inhibitory concentration (IC50) (commonly the point on the concentration scale where inhibition reaches its midpoint) in assay [1] (Table 2a, D770_N771insNPG) turned out to be 0.0352 µM; in assay [2] (setting [4]), 3.98 µM; in assay [3] (setting [5]), 0.0702 µM.

On to `CN(C)C/C=C/C(=O)N1Cc2c(-c3ccncc3)c(-c3ccc(F)cc3)nn2C(CC(=O)N(C)C)C1` (racemic) [Example 222, 2-[(7RS)-5-[(2E)-4-(dimethylamino)but-2-enoyl]-2-(4-fluorophenyl)-3-(pyridin-4-yl)-4,5,6,7-tetrahydropyrazolo[1,5-a]pyrazin-7-yl]-N,N-dimethylacetamide], for which the IC50 in assay [1] (Table 2a, D770_N771insNPG) is 0.013 µM; in assay [2] (setting [4]), 0.658 µM; in assay [3] (setting [5]), 0.00376 µM.

On to `CCc1cc(-c2nn3c(c2-c2ccncc2)CN(C(=O)/C=C/CN(C)C)CC3)ccc1Cl` [Example 32, formic acid-(2E)-1-[2-(4-chloro-3-ethylphenyl)-3-(pyridin-4-yl)-6,7-dihydropyrazolo[1,5-a]pyrazin-5(4H)-yl]-4-(dimethylamino)but-2-en-1-one (1:1)], for which the IC50 was 0.00389 µM in assay [1] (Table 2a, D770_N771insNPG); 1.07 µM in assay [2] (setting [4]); 0.00131 µM in assay [3] (setting [5]).

For `Cc1c[nH]c2nccc(-c3c(-c4cccc(C#N)c4)nn4c3CN(C(=O)/C=C/CN(C)C)CC4)c12` [Example 61, 3-{5-[(2E)-4-(dimethylamino)but-2-enoyl]-3-(3-methyl-1H-pyrrolo[2,3-b]pyridin-4-yl)-4,5,6,7-tetrahydropyrazolo[1,5-a]pyrazin-2-yl}benzonitrile], the IC50 in assay [1] (Table 2a, D770_N771insNPG) amounted to 0.398 µM; in assay [2] (setting [4]), 0.922 µM; in assay [3] (setting [5]), 2.38 µM.

With `Cc1c[nH]c2nccc(-c3c(-c4cccc5ccoc45)nn4c3CN(C(=O)/C=C/CN(C)C)CC4)c12` [Example 186, (2E)-1-[2-(1-benzofuran-7-yl)-3-(3-methyl-1H-pyrrolo[2,3-b]pyridin-4-yl)-6,7-dihydropyrazolo[1,5-a]pyrazin-5(4H)-yl]-4-(dimethylamino)but-2-en-1-one formic acid (1:1)], the half-maximal inhibitory concentration (IC50) was 0.129 µM in assay [1] (Table 2a, D770_N771insNPG); 0.557 µM in assay [2] (setting [4]); 0.21 µM in assay [3] (setting [5]).

Turning to `CC1c2c(-c3ccnc4[nH]ccc34)c(-c3ccc(C(F)(F)F)cc3)nn2CCN1C(=O)/C=C/CN(C)C` (single isomer, unassigned; isomer 2) [Example 252, 4-(dimethylamino)-1-[4-methyl-3-(1H-pyrrolo[2,3-b]pyridin-4-yl)-2-[4-(trifluoromethyl)phenyl]-6,7-dihydropyrazolo[1,5-a]pyrazin-5(4H)-yl]but-2-en-1-one (isomer 2)], the IC50 in assay [1] (Table 2a, D770_N771insNPG) worked out at 2.84 µM; in assay [2] (setting [4]), 0.18 µM; in assay [3] (setting [5]), 0.0117 µM.

`Cc1c[nH]c2nccc(-c3c(-c4ccc(C(F)(F)F)cc4)nn4c3CN(C(=O)/C=C/CN(C)C)CC4)c12` [Example 58, (2E)-4-(dimethylamino)-1-[3-(3-methyl-1H-pyrrolo[2,3-b]pyridin-4-yl)-2-[4-(trifluoromethyl)phenyl]-6,7-dihydropyrazolo[1,5-a]pyrazin-5(4H)-yl]but-2-en-1-one]: the IC50 in assay [1] (Table 2a, D770_N771insNPG) came to 1.3 µM; in assay [2] (setting [4]), 0.138 µM; in assay [3] (setting [5]), 0.446 µM.

Turning to `C=CC(=O)N1Cc2c(-c3ccncc3)c(-c3ccc(Cl)cc3)nn2C(C)C1` (racemic) [Example 281, 1-[(7RS)-2-(4-chlorophenyl)-7-methyl-3-(pyridin-4-yl)-6,7-dihydropyrazolo[1,5-a]pyrazin-5(4H)-yl]prop-2-en-1-one], the IC50 was 0.000366 µM in assay [1] (Table 2a, D770_N771insNPG); 0.00977 µM in assay [2] (setting [4]); 0.00017 µM in assay [3] (setting [5]).

With `CC#CC(=O)N1CCn2nc(-c3ccc(F)cc3)c(-c3ccncc3)c2C1` [Example 16, 1-[2-(4-fluorophenyl)-3-(pyridin-4-yl)-6,7-dihydropyrazolo[1,5-a]pyrazin-5(4H)-yl]but-2-yn-1-one], the IC50 stood at 0.0766 µM in assay [1] (Table 2a, D770_N771insNPG); 0.0766 µM in assay [1] (setting [6]); 0.774 µM in assay [2] (setting [4]); 0.774 µM in assay [2] (setting [7]); 0.0552 µM in assay [3] (setting [5]); 0.0552 µM in assay [3] (setting [8]).

Turning to `C=CC(=O)N1CCn2nc(-c3ccc(F)cc3)c(-c3ccnc4[nH]ccc34)c2C1C` (single isomer, unassigned; isomer 1) [Example 249, 1-(2-(4-fluorophenyl)-4-methyl-3-(1H-pyrrolo[2,3-b]pyridin-4-yl)-6,7-dihydropyrazolo[1,5-a]pyrazin-5(4H)-yl) prop-2-en-1-one (isomer 1)], the IC50 in assay [1] (Table 2a, D770_N771insNPG) was 0.0575 µM; in assay [2] (setting [4]), 0.0987 µM; in assay [3] (setting [5]) it was 0.372 µM.

On to `CCc1ccc(-c2nn3c(c2-c2ccncc2)CN(C(=O)/C=C/CN(C)C)CC3)cc1` [Example 158, (2E)-4-(dimethylamino)-1-[2-(4-ethylphenyl)-3-(pyridin-4-yl)-6,7-dihydropyrazolo[1,5-a]pyrazin-5(4H)-yl]but-2-en-1-one], for which the IC50 in assay [1] (Table 2a, D770_N771insNPG) amounted to 0.0164 µM; in assay [2] (setting [4]), 0.482 µM; in assay [3] (setting [5]) it was 0.00501 µM.

Take `C=CC(=O)N1CCn2nc(-c3ccc(Cl)c(C#N)c3)c(-c3ccncc3)c2C1` [Example 118, 2-chloro-5-[5-(prop-2-enoyl)-3-(pyridin-4-yl)-4,5,6,7-tetrahydropyrazolo[1,5-a]pyrazin-2-yl]benzonitrile]: the IC50 in assay [1] (Table 2a, D770_N771insNPG) came to 0.0049 µM; in assay [2] (setting [4]) it was 0.183 µM; in assay [3] (setting [5]), 0.00855 µM.

Take `C=C(F)C(=O)N1CCn2nc(-c3ccc(F)cc3)c(-c3ccncc3)c2C1` [Example 17, 2-fluoro-1-[2-(4-fluorophenyl)-3-(pyridin-4-yl)-6,7-dihydropyrazolo[1,5-a]pyrazin-5(4H)-yl]prop-2-en-1-one]: the IC50 in assay [1] (Table 2a, D770_N771insNPG) is 0.0858 µM; in assay [1] (setting [6]), 0.0858 µM; in assay [2] (setting [4]) it was 1.15 µM; in assay [2] (setting [7]), 1.15 µM; in assay [3] (setting [5]), 0.0557 µM; in assay [3] (setting [8]), 0.0557 µM.

Turning to `C=CC(=O)N1CCn2nc(-c3cccc(C#N)c3)c(-c3ccnc4[nH]cc(C)c34)c2C1` [Example 45], the half-inhibitory concentration (IC50) in assay [1] (Table 2a, D770_N771insNPG) is 0.158 µM; in assay [2] (setting [4]), 0.218 µM; in assay [3] (setting [5]), 0.973 µM.

Regarding `CN(C)C/C=C/C(=O)N1CCn2nc(-c3ccc(C(F)(F)F)cc3)c(-c3ccncc3)c2C1` [Example 34, (2E)-4-(dimethylamino)-1-[3-(pyridin-4-yl)-2-[4-(trifluoromethyl)phenyl]-6,7-dihydropyrazolo[1,5-a]pyrazin-5(4H)-yl]but-2-en-1-one], the IC50 in assay [1] (Table 2a, D770_N771insNPG) was determined as 0.00432 µM; in assay [2] (setting [4]) it was 0.198 µM; in assay [3] (setting [5]), 0.00137 µM.

Regarding `C=CC(=O)N1CCn2nc(-c3ccc(F)cc3)c(-c3ccnc4[nH]ccc34)c2C1C` (single isomer, unassigned; isomer 2) [Example 261, 1-(2-(4-fluorophenyl)-4-methyl-3-(1H-pyrrolo[2,3-b]pyridin-4-yl)-6,7-dihydropyrazolo[1,5-a]pyrazin-5(4H)-yl) prop-2-en-1-one (isomer 2)], the IC50 in assay [1] (Table 2a, D770_N771insNPG) was determined as 0.0073 µM; in assay [2] (setting [9]), 0.111 µM; in assay [3] (setting [5]) it was 0.0065 µM.

As for `C=CC(=O)N1Cc2c(-c3ccncc3)c(-c3ccc(F)cc3)nn2CC1(C)C` [Example 210, 1-[2-(4-fluorophenyl)-6,6-dimethyl-3-(pyridin-4-yl)-6,7-dihydropyrazolo[1,5-a]pyrazin-5(4H)-yl]prop-2-en-1-one], the IC50 in assay [1] (Table 2a, D770_N771insNPG) was determined as 0.0604 µM; in assay [2] (setting [4]) it was 0.551 µM; in assay [3] (setting [5]) it was 0.0259 µM.

In the case of `CN(C)C/C=C/C(=O)N1CCn2nc(-c3cccc(Cl)c3)c(-c3ccncc3)c2C1` [Example 150, (2E)-1-[2-(3-chlorophenyl)-3-(pyridin-4-yl)-6,7-dihydropyrazolo[1,5-a]pyrazin-5(4H)-yl]-4-(dimethylamino)but-2-en-1-one], the IC50 in assay [1] (Table 2a, D770_N771insNPG) stood at 0.00105 µM; in assay [2] (setting [4]), 0.0543 µM; in assay [3] (setting [5]) it was 0.000764 µM.

Turning to `CC1c2c(-c3ccncc3)c(-c3ccc(Cl)cc3F)nn2CCN1C(=O)/C=C/CN(C)C` (single isomer, unassigned; isomer 1) [Example 285, (2E)-1-[2-(4-chloro-2-fluorophenyl)-4-methyl-3-(pyridin-4-yl)-6,7-dihydropyrazolo[1,5-a]pyrazin-5(4H)-yl]-4-(dimethylamino)but-2-en-1-one (isomer 1)], the IC50 in assay [1] (Table 2a, D770_N771insNPG) worked out at 0.000644 µM; in assay [2] (setting [9]) it was 0.042 µM; in assay [3] (setting [5]), 0.000232 µM.

Take `C=CC(=O)N1CCn2nc(Nc3ccc(F)cc3)c(-c3ccncc3)c2C1` [Example 19, 1-[2-(4-fluoroanilino)-3-(pyridin-4-yl)-6,7-dihydropyrazolo[1,5-a]pyrazin-5(4H)-yl]prop-2-en-1-one]: the IC50 in assay [1] (Table 2a, D770_N771insNPG) was 0.21 µM; in assay [2] (setting [4]), 0.823 µM; in assay [2] (setting [7]), 0.823 µM; in assay [3] (setting [5]) it was 0.0259 µM; in assay [3] (setting [8]), 0.0259 µM.
